From ChEMBL document CHEMBL3217661, “Selective inhibition of E. coli 1-deoxy-D-xylulose-5-phosphate synthase by acetylphosphonates()” (Medchemcomm, 2012)

Tests used:
[1] = Inhibition of ThDP-dependent pyruvate dehydrogenase E1 subunit in porcine heart using pyruvate as substrate by spectrophotometric coupled assay; set-up: species or system Sus scrofa
[2] = biological target: T1, 1-deoxy-D-xylulose-5-phosphate synthase (Escherichia coli (strain K12), UniProt P77488); experiment: Competitive inhibition of ThDP-dependent Escherichia coli DXP synthase using pyruvate as substrate assessed as NADPH consumption by spectrophotometric coupled assay
T1 sequence (P77488 whole entry): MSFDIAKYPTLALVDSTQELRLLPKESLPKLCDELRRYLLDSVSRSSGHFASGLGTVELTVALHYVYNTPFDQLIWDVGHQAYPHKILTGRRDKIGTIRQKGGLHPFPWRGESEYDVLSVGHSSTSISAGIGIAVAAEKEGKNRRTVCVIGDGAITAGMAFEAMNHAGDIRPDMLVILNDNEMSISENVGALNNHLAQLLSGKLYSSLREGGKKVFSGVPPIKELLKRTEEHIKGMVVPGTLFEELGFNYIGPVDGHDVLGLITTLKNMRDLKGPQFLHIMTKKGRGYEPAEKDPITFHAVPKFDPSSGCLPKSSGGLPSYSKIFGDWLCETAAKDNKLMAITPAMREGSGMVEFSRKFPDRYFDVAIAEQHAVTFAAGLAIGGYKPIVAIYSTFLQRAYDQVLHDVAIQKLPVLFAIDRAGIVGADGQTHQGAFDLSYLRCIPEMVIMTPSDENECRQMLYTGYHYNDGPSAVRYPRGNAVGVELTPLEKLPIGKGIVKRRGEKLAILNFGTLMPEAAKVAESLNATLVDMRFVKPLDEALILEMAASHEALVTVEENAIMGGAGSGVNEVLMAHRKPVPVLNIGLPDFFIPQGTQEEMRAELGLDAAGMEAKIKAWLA

[3] = Inhibition of ThDP-dependent Saccharomyces cerevisiae transketolase by spectrophotometric coupled assay
[4] = Selectivity ratio of Ki for pyruvate dehydrogenase E1 subunit in porcine heart to Ki for Escherichia coli DXP synthase

Row | Compound | Ki [1] | Ki [2] | Ki [3] | Ratio Ki [4]
1 | CCOP(=O)(O)C(C)=O | 46.6 µM | 6.7 µM | > 1000 µM | –
2 | CCCC(=O)P(=O)(O)OC | > 1000 µM | > 1000 µM | > 1000 µM | –
3 | COP(=O)(O)C(C)=O | 29.9 µM | 0.96 µM | > 1000 µM | 31
4 | CCC(=O)P(=O)(O)OC | > 1000 µM | 258 µM | > 1000 µM | –
5 | CCCCOP(=O)(O)C(C)=O | 335 µM | 5.6 µM | > 1000 µM | 60
6 | CCCCC(=O)P(=O)(O)OC | > 1000 µM | > 1000 µM | > 1000 µM | –
